The results in this text go back to USRE49035E1, “Traditional Chinese medicine composition, and preparation and application thereof” (Tasly Pharmaceutical Group Co., Ltd., priority 2013, dated 2022).

Common to all, as to assay type: in vivo
In assay [1] the test system is ADP-induced platelet aggregation. Briefly: ADP-induced platelet aggregation rate trial in rabbits. To be noted: ADP final 3 μg/ml; dose 60 mg/kg intragastrically once a day for 7 d. On the procedure:
(§1) The rabbits were randomly grouped into 4 groups: the model group was given with distilled water, the aspirin group ([…]), Extract A groups of low dose and high dose at 42 and 84 mg/kg (respectively 1 2 times of clinic equivalent dosage), intragastrically administrated, once a day for 7 consecutive days. The volume of medicine administrated was 1 ml/kg body weight. 60 min after intragastric administration on 7th day, the animals were anesthetized locally, blooded through carotid artery, anticoagulated with sodium citrate (3.8%) 1:9 and centrifugated at 1000 r/min for 10 min. Platelet-rich plasma (PRP) was taken and the remain centrifugated at 3000 r/min to take platelet-poor plasma (PPP. Aggregation was induced by ADP (final concentration 3 μg/ml), AA (final concentration 80 μg/ml) and collagen (5 μg/ml). […] platelet aggregation & coagulation factor analyzer was used to measure the maximum platelet aggregation rate and to calculate inhibition rate according to following formula. [formula]

Assay [2] deals with AA-induced platelet aggregation. Briefly: AA-induced platelet aggregation rate trial in rabbits. To be noted: AA final 80 μg/ml; dose 60 mg/kg intragastrically once a day for 7 d. On the procedure:
as §1

The subject of assay [3] is collagen-induced platelet aggregation. Briefly: Collagen-induced platelet aggregation rate trial in rabbits. To be noted: collagen 5 μg/ml; dose 60 mg/kg intragastrically once a day for 7 d. On the procedure: as §1

`CC(=O)Oc1ccccc1C(=O)O` [Aspirin]: the figures for the Platelet aggregation rate in assay [1], in assay [2] and in assay [3] were 19.15 ± 4.08 %, 5.80 ± 1.85 % and 6.06 ± 2.07 %, respectively.
